# According to article PMC5368057, “Structural, thermodynamic, and phosphatidylinositol 3‐phosphate binding properties of Phafin2” (Protein Science : A Publication of the Protein Society, 2017):
# Molecular target: T1, Phafin2 (Homo sapiens, UniProt Q9H8W4)
# T1 construct: gene PLEKHF2; full length (PH and FYVE domains; C-terminal tryptic peptide 224-249), pGEX4T3 GST fusion, GST removed by thrombin; N-terminus Gly-Ser-Met-Val-Asp (Gly-Ser from vector); E. coli Rosetta; 27,941 Da; monomer
# T1 sequence (Q9H8W4 1-249): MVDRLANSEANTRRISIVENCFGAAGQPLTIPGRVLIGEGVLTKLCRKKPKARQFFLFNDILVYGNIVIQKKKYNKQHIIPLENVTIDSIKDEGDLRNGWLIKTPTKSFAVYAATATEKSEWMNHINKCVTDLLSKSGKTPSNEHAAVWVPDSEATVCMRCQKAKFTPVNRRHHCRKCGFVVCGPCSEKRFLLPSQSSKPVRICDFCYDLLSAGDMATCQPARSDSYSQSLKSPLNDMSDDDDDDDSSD
# Test: SPR, liposomes on L1 chip, two-state conformational change fit
# Format: binding
# Settings: 1.5% lipid in phosphatidylcholine (DOPC) liposomes, control liposomes without it; liposome buffer 20 mM HEPES pH 7.0, 100 mM NaCl; room temperature; apparent
structure (smiles),measurement,value
CCCCCCCCCCCCCCCC(=O)OC[C@H](COP(=O)(O)O[C@@H]1[C@H](O)[C@H](OP(=O)(O)O)[C@@H](O)[C@H](O)[C@H]1O)OC(=O)CCCCCCCCCCCCCCC [dipalmitoyl PtdIns(3)P],Kd,285 ± 80 nM
